Experimental data: article PMC5431435, “A short artificial antimicrobial peptide shows potential to prevent or treat bone infections” (Scientific Reports, 2017)

Assays:
[1] = tested on: human primary osteoblast-like cells; test: Scratch assay (cell migration); format: cell-based
Method: (3) The effect of AMP2 on cell migration was assessed. Human primary osteoblast-like cells were seeded into 24-well plates and cultured in cultivation media. After reaching confluence, medium was removed and a cross scratch was made using a 10 µl pipette tip using a modified protocol. […] Using ImageJ software (version 1.4.8.; https://imagej.nih.gov/ij/) the diameter of the scratch was measured and the closure over time calculated (n = 3).

[2] = tested on: S. aureus (ATCC 29213); test: Zone of inhibition test of PDLLA-coated titanium wires; format: cell-based, Staphylococcus aureus; details: 10, 20, 30% w/w in poly(D,L-lactide) coating, n = 3
Method: Titanium wires (diameter 1 mm, Synthes, USA) were coated with Poly(D,L-lactide) (PDLLA, Boehringer Ingelheim, Germany) and incorporated AMP2 at three different concentrations: 10% w/w, 20% w/w, or 30% w/w. Gentamicin/PDLLA (10% w/w) or PDLLA coated wires served as control. Briefly, 100 mg PDLLA was solved in 1.5 ml ethyl acetate and the wires were coated in a dipping procedure. Details of the coating were described previously. Three nails of each group were placed on Mueller-Hinton agar plates plated with S. aureus (ATCC 29213) and the zone of inhibition (ZOI) was quantified after 1, 3, 7, and 14 days using ImageJ software.

[3] = tested on: human primary osteoblast-like cells; details: differentiation medium with 17 or 133 µg/ml AMP2, days 0, 7, 14, 21
Method: Confluent cells were cultured for 21 days in cultivation medium (CM), differentiation medium (DM: D/H + 10% FCS + 1% P/S + 0.5 mM L-Asc + 10 mM β-Glyc + 100 nM dexamethasone + 1.5 mM calcium chloride) and DM with a low (17 µg/ml) and a high (133 µg/ml) AMP2 concentration. Medium was changed every 3–4 days and fresh AMP was added by each change. Cells from two donors were used and the experiments were done in triplicate (n = 6).
Cells were incubated with 0.13% w/v 4-nitrophenyl phosphate disodium salt hexahydrate (Sigma-Aldrich, Germany) dissolved in 0.1 M AP-buffer (50 mM glycine, 100 mM Tris-Base, 1 mM MgCl2 in dH2O) at pH 10.5 for 30 min at 37 °C and absorbance was measured at 405 nm wavelength. […]
Cells were fixed with 3.7% v/v formalin for 10 min at RT and incubated with 0.5% w/v alizarin red (Sigma-Aldrich, Germany) in dH2O for 10 min at RT. Quantification was done by removing staining with 5% w/v SDS in 5 mM HCl and measuring absorbance at 570 nm.
RNA was isolated after 0, 7, 14 and 21 days in culture using the NucleoSpin RNA Kit (Macherey Nagel, Germany). […] For all primers, amplification efficiencies were analyzed and mean normalized expression (MNE) ratios were calculated using the ΔΔCt method with efficiency correction and normalization to the control (d0 of differentiation) and 18 S ribosomal RNA used as a reference gene.

[4] = tested on: human primary osteoblast-like cells; format: cell-based
Method: (1) For the cytotoxicity test, 1 × 10^4 cells were seeded in 48-well plates with cultivation medium (CM) DMEM/Ham’s F-12 (D/H; Biochrom, Germany) + 10% fetal calf serum (FCS; Biochrom, Germany) + 1% penicillin/streptomycin (P/S; Biochrom, Germany) + 0.05 mM L-ascorbic-2 phosphate (L-Asc) + 0.05 mM β-glycerolphosphate (β-Glyc) and incubated overnight at 37 °C, 5% CO2 and 95% relative humidity. After adding the AMPs (3–542 µg/ml - depending on the AMP) or gentamicin (8–1024 µg/ml) in CM with 1% FCS, without Pen/Strep, cells were cultured for three days. Cell viability was determined with an AlamarBlue® assay before adding the AMPs and after 3 days. Alkaline phosphatase activity was measured on day 3.
Alamar Blue® (Biozol, Germany) was done according to the manufacturer’s instruction.

[5] = tested on: S. epidermidis biofilms; test: FISH of biofilm grown on polyurethane waver; format: cell-based, Staphylococcus epidermidis; details: n = 10 pictures
Method: Fluorescence in situ hybridization (FISH) was used to visualize the effect of the AMP2 on a biofilm. S. epidermidis (PIA 8400) biofilm was grown on 5 × 8 mm polyurethane (PU) waver (Epurex Films, Germany) in the incubator at 37 °C for 72 hours under aerobic conditions. After biofilm formation, medium was replaced by MH^++ medium containing different concentrations of the AMP2 (4 or 8 µg/ml) or phosphate buffered saline as control. After further 24 hours of incubation on a rotation shaker, waver were removed, fixed and embedded in methylmethacrylate (Technovit 8100, Kulzer, Germany) and sectioned as described elsewhere. To visualize the biofilm, samples were stained with nucleic acid stain DAPI and the Cy3-labeled Staphylococcus-specific FISH-probe STAPHY (5′[…]3′, biomers, Germany) as published, [52]. A nonsense probe NON338 labeled in Cy5 was used to exclude unspecific probe binding. After incubation in a dark, humid chamber for 2 hours at 50 °C, the slides were rinsed with sterile water, dried, and mounted using Vectashield mounting medium (Vector Laboratories, Burlingame, CA). Image analysis was done using an epifluorescence microscope (Axioplan 2; Carl Zeiss, Jena, Germany) equipped with narrow band filter sets (AHF Analysentechnik, Germany). Image acquisition was performed with an AxioCam MRm (Zeiss, Germany) making use of the AxioVision 4.4 software. Digital image analysis was performed with the daime software. Per group 10 pictures were randomly chosen and analyzed.

[6] = tested on: planktonic S. aureus; test: MIC by isothermal microcalorimetry, planktonic bacteria; format: cell-based, Staphylococcus aureus; details: all three tested bouillons (MH++, MH+, MH−), heat flow 24 hours, n = 3
Method: Mueller-Hinton II bouillon with adjusted cations (MH^++; BBL, Germany), Mueller-Hinton bouillon with low cations (MH^+; with 3-4 mg/l Ca^2+ and 5-6 mg/l Mg^2+; Oxoid, Germany) and Mueller-Hinton bouillon without cations (MH^-; Merck, Germany). AMP2 concentrations of 2-33 μg/ml were tested with the three different bouillons and gentamicin concentrations of 0.125-2 μg/ml were analyzed with MH^++. Staphylococcus aureus (ATCC 29213, 300 μl with 10^5 cfu/ml) was added to each microcalorimetry glass ampoule (Waters; […] The ampoules were hermetically sealed and heat flow (W) was measured for 24 hours in the calorimeter TAM III (TA Instruments, USA). […] ROBU […], Germany) in MH^++ bouillon at 37 °C in an aerobe atmosphere for 24 hours. […] Beads were washed again and added to the glass ampoule with fresh MH^++ bouillon. The total heat (J) was measured for 48 hours in the calorimeter. A concentration, which inhibits minimum 90% of biofilm, can be defined as the minimal biofilm inhibitory concentration (MICB). All samples were tested with n = 6.

[7] = tested on: S. aureus; test: Effect of FCS on AMP2 activity; format: cell-based, Staphylococcus aureus; details: for bacterial growth: then 3 h with S. aureus, mean ± StD, n = 3
Method: In a further experiment the possible effect of serum on AMP activity was investigated. AMP2 (67 µg/ml) was preincubated for 2 hours at 37 °C with different concentrations of FCS and then added to S. aureus.
In addition, the influence of fetal calf serum (FCS, containing 17 g/l albumin; Biochrom, Germany) on AMP activity was determined by preincubating 67 µg/ml of the AMP2 with 0–10% FCS at 37 °C for 2 hours followed by incubation with S. aureus for 3 hours. The control group, without AMP, was FCS free (n = 3).

[8] = 4 µg/ml AMP2, 24 h in MH++ on 72 h biofilm

KRRWRIWLV [AMP2, 9mer cationic antimicrobial peptide … from an optimized peptide library]
migration after 24 hours ([1]; 67 µg/ml AMP2): reduced the migration of cells
gap size after 48 hours ([1]; 67 µg/ml AMP2, 0.1% FCS, gap at 0 hours = 100%): 71%
migration after 24 hours ([1]; 133 µg/ml AMP2 (data not shown)): no migration was observed
gap after 48 hours ([1]; 133 µg/ml AMP2, 0.1% FCS): still complete open
free-area after 24 hours ([1]; 4–33 µg/ml AMP2 (range also covers positive control and CM without AMP2), 0.1% FCS, gap at 0 hours = 100%): 50–66%
cell-free area after 48 hours ([1]; AMP2 concentrations up to 33 µg/ml, 0.1% FCS, gap at 0 hours = 100%): 12–28%
Zone of Inhibition, activity of incorporated peptide [2]: inhibited the growth of S. aureus in a dose dependent manner
effect on the osteogenic differentiation (expression of RUNX2, AP, Col1) [3]: no effect
concentrations with no negative effect on cell viability [4]: < 267 µg/mL
concentrations with significant inhibition of viability compared to the control group [4]: ≥ 267 µg/mL
reduction of FISH-positive (Cy3) area [5, 8]: 86%
reduction of the biofilm area (DAPI) compared to the untreated group [5, 8]: up to 76%
reduction of FISH-positive (Cy3) area ([5]; 8 µg/ml AMP2, 24 h in MH++ on 72 h biofilm): 90%
MIC (calorimetry) [6]: 8 µg/mL
bacterial growth ([7]; AMP2 67 µg/ml preincubated 2 h at 37 °C with 0% FCS): 7 ± 9 cfu/ml
bacterial growth ([7]; AMP2 67 µg/ml preincubated 2 h at 37 °C with 0.1% FCS): 37 ± 13 cfu/ml
bacterial growth ([7]; AMP2 67 µg/ml preincubated 2 h at 37 °C with 1% FCS): 553 ± 255 cfu/ml
bacterial growth ([7]; AMP2 67 µg/ml preincubated 2 h at 37 °C with 10% FCS): 2,078 ± 540 cfu/ml
bacterial growth compared to the group without AMP ([7]; AMP2 67 µg/ml, 10% FCS): less than 2%
